This is an account of results in ChEMBL document CHEMBL1201862, “PubChem BioAssay data set” (2004).

Activity calls are given as the source filed them.

Assay [1] in a line: inhibitors of firefly luciferase expression or activity, dose response, H4 neuroglioma cells, luminescence (AID 1990). The format is functional, cell-based.
Assay [2] relates to HEK293. The assay can be described thus: NOD1 signaling inhibitors, primary screen, cell-based, luminescence, uHTS (AID 1578). The following applies: Homo sapiens. The format is functional.
The test system of assay [3] is HEK293. The assay can be described thus: cells. The format is functional, cell-based. As to conditions: Homo sapiens.
Assay [4] is described as follows: Luminescence Cell-Based Dose Response HTS to Identify Inhibitors of 5'UTR Stem-Loop Driven Prion Protein mRNA Translation in H4 Neuroglioblastoma Cells. [Related pubchem assays: 1827 (Project Summary), 1813 (Primary HTS)]. The assay is classed as functional.
A short description of assay [5]: inhibitors of SNCA 5'UTR-driven reporter translation, confirmation, H4 neuroglioma cells, luminescence (AID 1988). The format is functional, cell-based.
In assay [6] the test system is HEK293. Nature of the assay: cells. The format is functional, cell-based. As to conditions: Homo sapiens. This is another data set of the same source.
Assay [7] has as its target Nucleotide-binding oligomerization domain-containing protein 2 (Homo sapiens, UniProt Q9HC29). Nature of the assay: NOD2 signaling inhibitors, cell-based, luminescence, uHTS, HEK293 (AID 1566). The format is functional.
The test system of assay [8] is HEK293. The assay can be described thus: NOD2 signaling inhibitors in MDP-stimulated cells, cell-based, uHTS, luminescence (AID 2001). The assay is classed as functional. As to conditions: Homo sapiens.
The subject of assay [9] is HEK293. Nature of the assay: cells. The assay is classed as functional, cell-based. The following applies: Homo sapiens. The source holds these as a separate data set.
In assay [10] the target is Voltage-dependent T-type calcium channel subunit alpha-1H (Homo sapiens, UniProt O95180). The format is functional.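 Also: channel activity triggered by adding a high calcium stimulation buffer.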
A further assay has as its target Troponin, cardiac muscle (Homo sapiens, UniProt P19429+P45379+P63316). Nature of the assay: Fluorescence-based biochemical high throughput dose response assay for activators of the calcium sensitivity of cardiac Regulated Thin Filaments (RTF). [Related pubchem assays (depositor defined):AID493008, AID493018, AID504382, AID504383]. The format is protein-complex assay.

Assay [11] is described as follows: growth suppression of PTEN-null colon cells, dose response, cell-based, HCT116 PTEN knockout (AID 1047).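 Also: HCT116 colon tumor cells with PTEN knocked out; cells exposed to compound for 60 hours before readout; potency for loss of cell viability measured by luminescence.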 The assay is classed as functional.
Assay [12] is described as follows: growth suppression of beta-catenin-knockout colon cells, dose response, cell-based, HCT116, human colon tumor (AID 1045).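 Also: HCT116 colon tumor cells with beta catenin knocked out; cells exposed to compound for 60 hours.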 The format is functional.
Assay [13] can be described thus: cytotoxicity in HEK-293T cells, dose response, cytotoxicity control for BCR NF-kB inhibitor project, luminescence, B-cell screen hits (AID 489021).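 Also: HEK-293T cells carrying an NF-kB luciferase reporter; cells exposed to compound for about 14 hours before viability readout.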 The format is functional, cell-based.
Assay [14] addresses T1, RNA-binding protein pos-1 (Caenorhabditis elegans, UniProt G5EF15).
T1 sequence (G5EF15 whole entry): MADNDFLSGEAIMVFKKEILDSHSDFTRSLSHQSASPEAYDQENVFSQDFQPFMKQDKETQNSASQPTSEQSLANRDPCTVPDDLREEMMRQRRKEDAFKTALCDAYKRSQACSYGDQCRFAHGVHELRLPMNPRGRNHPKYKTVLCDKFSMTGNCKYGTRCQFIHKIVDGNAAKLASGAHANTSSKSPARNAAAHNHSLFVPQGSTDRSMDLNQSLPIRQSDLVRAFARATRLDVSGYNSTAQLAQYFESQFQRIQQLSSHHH
The assay can be described thus: inhibitors of POS-1/mex-3 RNA binding, dose response, biochemical, fluorescence polarization (AID 1964).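 Also: purified POS-1 fused to maltose binding protein made in E. coli; potency of compounds blocking POS-1 binding to fluorescent RNA.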 A general note: In fluorescence polarisation assays a small probe gives low polarisation when free and higher when bound to something large.

In assay [15] the target is T2, Zinc finger protein mex-5 (Caenorhabditis elegans, UniProt Q9XUB2).
T2 sequence (Q9XUB2 whole entry): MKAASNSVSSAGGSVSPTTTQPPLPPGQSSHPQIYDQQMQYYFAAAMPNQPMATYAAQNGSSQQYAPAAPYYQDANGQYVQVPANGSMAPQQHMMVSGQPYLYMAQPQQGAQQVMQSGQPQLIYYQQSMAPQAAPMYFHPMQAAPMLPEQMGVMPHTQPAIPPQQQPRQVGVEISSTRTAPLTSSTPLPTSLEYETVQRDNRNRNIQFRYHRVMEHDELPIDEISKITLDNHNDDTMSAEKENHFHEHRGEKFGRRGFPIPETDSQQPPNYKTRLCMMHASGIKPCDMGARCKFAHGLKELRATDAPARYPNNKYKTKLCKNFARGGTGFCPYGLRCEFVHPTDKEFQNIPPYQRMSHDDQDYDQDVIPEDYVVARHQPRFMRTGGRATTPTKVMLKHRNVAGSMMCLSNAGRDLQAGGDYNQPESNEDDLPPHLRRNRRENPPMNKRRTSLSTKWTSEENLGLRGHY
The assay can be described thus: MEX-5/TCR-2 RNA interaction inhibitors, dose response, biochemical, C. elegans, fluorescence polarization (AID 1960).

A word on the EC50: it is the concentration needed to bring the measured effect to its halfway point. As usually defined, the IC50 is the point on the concentration scale where inhibition reaches its midpoint.

As to `COc1ccccc1C(=O)NCc1ccc(-c2nc3ccccc3s2)cc1`, the EC50 is 15.2 µM (active) in assay [1]; 6.77 µM (active) with HEK293 [2]; > 120 µM (not active) in assay [4]; 0.312 µM (active) in [5]; 6.29 µM (active) in assay [7]. Further, the IC50 in the assay with HEK293 [3] was 1.93 µM (active); in the assay on HEK293 [6], > 20 µM (inactive); in the assay with HEK293 [8] it was 6.82 µM (inactive); in the assay with HEK293 [9] it was > 20 µM (inactive).
On to `O=C(NC1CCCCC1)C(c1ccccc1)N(Cc1ccc2c(c1)OCO2)C(=O)c1cnsn1` (stereo not drawn), for which the EC50 in assay [10] was 4.5 µM (active).
For the compound `O=C(c1ccccc1)c1cccc(NC(=O)c2ccc(Br)o2)c1`, in assay [10], the EC50 was 7.3 µM (active).
Turning to `N=c1n(Cc2ccccc2)c2ccccc2n1CC(O)c1ccco1` (stereo not drawn), the EC50 at Troponin, cardiac muscle is > 71.5 µM (inactive).
As to `COc1ccc(NC(=O)c2cc3c(Cl)nc4ccccc4c3s2)cc1OC`, the EC50 was 58.6 µM (active) in assay [11] and 48.8 µM (active) in [12]. Moreover, in [13], the IC50 was > 80 µM (inactive).
With `Cc1ccccc1Nc1nc(Cl)c(C=O)s1`, the half-maximal effective concentration (EC50) in assay [14] and in assay [15] was > 300 µM (not active) each time. Moreover, in assay [13], the IC50 is > 80 µM (inactive).
